According to ChEMBL document CHEMBL3407479, “Structure-activity relationship for the oxadiazole class of antibiotics” (J Med Chem, 2015):
Converted amounts (≈) assume the structure as drawn.

Test system: Staphylococcus aureus
Experiment: Antibacterial activity against methicillin-sensitive Staphylococcus aureus ATCC 29213 after 16 to 20 hrs by broth microdilution method
Type: functional

Structure (SMILES)	MIC [µg/mL]
Ic1c[nH]nc1-c1nc(-c2ccc(Oc3ccccc3)cc2)no1	1 (≈ 2.32 µM)
Oc1ccc(-c2nc(-c3ccc(Oc4ccc(C(F)(F)F)cc4)cc3)no2)cc1F	2 (≈ 4.8 µM)
N#Cc1c[nH]nc1-c1nc(-c2ccc(Oc3ccc(C(F)(F)F)cc3)cc2)no1	2 (≈ 5.03 µM)
C=CCOc1cc(N)ccc1-c1nc(-c2ccc(Oc3ccccc3)cc2)no1	8 (≈ 20.8 µM)
Nc1cncc(-c2nc(-c3ccc(Oc4ccc(F)cc4)cc3)no2)c1	≥ 128
FC(F)(F)c1ccc(Oc2ccc(-c3noc(-c4n[nH]cc4Br)n3)cc2)cc1	1 (≈ 2.22 µM)
Fc1ccc(Oc2ccc(-c3noc(-c4ccc(Br)cc4)n3)cc2)cc1	≥ 128
COc1ccc(-c2nc(-c3ccc(Oc4ccccc4)cc3)no2)cc1N	≥ 128
FC(F)(F)c1ccc(Oc2ccc(-c3noc(-c4n[nH]c5ccccc45)n3)cc2)cc1	≥ 128
O=[N+]([O-])c1c[nH]c(-c2nc(-c3ccc(Oc4ccc(C(F)(F)F)cc4)cc3)no2)c1	8 (≈ 19.2 µM)
Fc1ccc(Oc2ccc(-c3noc(-c4c[nH]cn4)n3)cc2)cc1	≥ 128
Cl.NC(Cc1ccccc1)c1nc(-c2ccc(Oc3ccccc3)cc2)no1 (centres undefined)	≥ 128
Nc1c(F)cc(-c2nc(-c3ccc(Oc4ccc(C(F)(F)F)cc4)cc3)no2)cc1F	4 (≈ 9.23 µM)
FC(F)(F)c1ccc(Oc2ccc(-c3noc(-c4ccc(Br)cc4)n3)cc2)cc1	≥ 128
Oc1cc(-c2nc(-c3ccc(Oc4ccccc4)cc3)no2)ccc1I	≥ 128
Nc1ccc(-c2nc(-c3ccc(Oc4ccccc4)cc3)no2)c(O)c1	≥ 128
CCn1ccc(-c2nc(-c3ccc(Oc4ccc(F)cc4)cc3)no2)n1	≥ 128
COc1cc(-c2nc(-c3ccc(Oc4ccccc4)cc3)no2)ccc1N	≥ 128
O=C1C[C@H](c2nc(-c3ccc(Oc4ccc(C(F)(F)F)cc4)cc3)no2)CN1	≥ 128
CCCCNc1c[nH]nc1-c1nc(-c2ccc(Oc3ccc(C(F)(F)F)cc3)cc2)no1	≥ 128
O=[N+]([O-])c1ccc(-c2nc(-c3ccc(Oc4ccc(C(F)(F)F)cc4)cc3)no2)cc1	≥ 128
OCC#Cc1c[nH]nc1-c1nc(-c2ccc(Oc3ccc(C(F)(F)F)cc3)cc2)no1	4 (≈ 9.38 µM)
Oc1c(F)cc(-c2nc(-c3ccc(Oc4ccc(F)cc4)cc3)no2)cc1F	8 (≈ 20.8 µM)
Fc1ccc(Oc2ccc(-c3noc(-c4n[nH]c5ccccc45)n3)cc2)cc1	≥ 128
FC(F)(F)c1ccc(Oc2ccc(-c3noc(-c4cc[nH]n4)n3)cc2)cc1	≥ 128
Fc1ccc(Oc2ccc(-c3noc(-c4n[nH]cc4I)n3)cc2)cc1	4 (≈ 8.92 µM)

Structure (SMILES)	MIC [µg/mL]
O=C(Nc1c[nH]nc1-c1nc(-c2ccc(Oc3ccc(C(F)(F)F)cc3)cc2)no1)c1ccccc1	≥ 128
FC(F)(F)c1ccc(Oc2ccc(-c3noc(-c4n[nH]cc4I)n3)cc2)cc1	2 (≈ 4.01 µM)
CC(=O)N1CCC(c2nc(-c3ccc(Oc4ccc(F)cc4)cc3)no2)CC1	≥ 128
Oc1ccc(-c2nc(-c3ccc(Oc4ccc(F)cc4)cc3)no2)cc1	1 (≈ 2.87 µM)
Cc1ccc(S(=O)(=O)N2CCC(c3nc(-c4ccc(Oc5ccccc5)cc4)no3)CC2)cc1	≥ 128
Cl.c1ccc(Oc2ccc(-c3noc(C4CCCN4)n3)cc2)cc1 (centres undefined)	64
Oc1ccc(Cc2nc(-c3ccc(Oc4ccccc4)cc3)no2)cc1	8 (≈ 23.2 µM)
O=C1CC(c2nc(-c3ccc(Oc4ccc(C(F)(F)F)cc4)cc3)no2)NC(=O)N1 (centres undefined)	≥ 128
Nc1ccc(-c2nc(-c3ccc(Oc4ccccc4)cc3)no2)cc1	4 (≈ 12.1 µM)
Nc1cc(-c2nc(-c3ccc(Oc4ccc(F)cc4)cc3)no2)cnc1O	≥ 128
Fc1ccc(-c2nc(-c3ccc(Oc4ccccc4)cc3)no2)cc1	≥ 128
CCOP(=O)(OCC)c1c[nH]nc1-c1nc(-c2ccc(Oc3ccc(C(F)(F)F)cc3)cc2)no1	≥ 128
Oc1ccc(-c2nc(-c3ccc(Oc4ccc(C(F)(F)F)cc4)cc3)no2)cn1	≥ 128
Nc1cc(-c2nc(-c3ccc(Oc4ccc(F)cc4)cc3)no2)ccc1O	≥ 128
O=C1C[C@@H](c2nc(-c3ccc(Oc4ccc(C(F)(F)F)cc4)cc3)no2)CN1	≥ 128
Nc1c[nH]nc1-c1nc(-c2ccc(Oc3ccccc3)cc2)no1	16 (≈ 50.1 µM)
CC(C)(C)OC(=O)N1CCC(Nc2c[nH]nc2-c2nc(-c3ccc(Oc4ccc(C(F)(F)F)cc4)cc3)no2)CC1	≥ 128
Oc1ccc(-c2nc(-c3ccc(Oc4ccccc4)cc3)no2)cc1F	4 (≈ 11.5 µM)
FC(F)(F)c1ccc(Oc2ccc(-c3noc(-c4n[nH]cc4NC4CCCCC4)n3)cc2)cc1	≥ 128
CC(C)c1cc(-c2nc(-c3ccc(Oc4ccc(F)cc4)cc3)no2)n[nH]1	≥ 128
FC(F)(F)c1ccc(Oc2ccc(-c3noc(-c4cn[nH]n4)n3)cc2)cc1	16 (≈ 42.9 µM)
Fc1ccc(Oc2ccc(-c3noc(-c4c[nH]c5ncccc45)n3)cc2)cc1	≥ 128
Nc1ccc(-c2nc(-c3ccc(Oc4ccc(F)cc4)cc3)no2)cc1	≥ 128
NS(=O)(=O)c1ccc(-c2nc(-c3ccc(Oc4ccc(C(F)(F)F)cc4)cc3)no2)cc1	≥ 128
Oc1ccc(-c2nc(-c3ccc(Oc4ccc(F)cc4)cc3)no2)cn1	≥ 128
c1ccc(Oc2ccc(-c3noc(C4CCOCC4)n3)cc2)cc1	≥ 128

Structure (SMILES)	MIC [µg/mL]
Oc1ccc(-c2nc(-c3ccc(Oc4ccc(C(F)(F)F)cc4)cc3)no2)cc1O	2 (≈ 4.83 µM)
Nc1cc(-c2nc(-c3ccc(Oc4ccc(C(F)(F)F)cc4)cc3)no2)cnc1O	≥ 128
Fc1ccc(Oc2ccc(-c3noc(-c4cc[nH]c4)n3)cc2)cc1	≥ 128
O=c1[nH]c(-c2ccc(Oc3ccccc3)cc2)no1	≥ 128
O=[N+]([O-])c1c[nH]nc1-c1nc(-c2ccc(Oc3ccc(F)cc3)cc2)no1	1 (≈ 2.72 µM)
NCCCCc1nc(-c2ccc(Oc3ccccc3)cc2)no1	≥ 128
CC(C)Nc1c[nH]nc1-c1nc(-c2ccc(Oc3ccccc3)cc2)no1	0.5 (≈ 1.38 µM)
CC(=O)Nc1ccc(-c2nc(-c3ccc(Oc4ccc(C(F)(F)F)cc4)cc3)no2)cc1	≥ 128
Oc1ccc(-c2nc(-c3ccc(Oc4ccc(F)cc4)cc3)no2)cc1F	2 (≈ 5.46 µM)
O=[N+]([O-])c1ccc(-c2nc(-c3ccc(Oc4ccccc4)cc3)no2)cc1	≥ 32
O=[N+]([O-])c1cc(-c2nc(-c3ccc(Oc4ccc(C(F)(F)F)cc4)cc3)no2)cnc1O	8 (≈ 18 µM)
Nc1ccc(-c2nc(-c3ccc(Oc4ccc(C(F)(F)F)cc4)cc3)no2)cc1	1 (≈ 2.52 µM)
Clc1c[nH]nc1-c1nc(-c2ccc(Oc3ccccc3)cc2)no1	1 (≈ 2.95 µM)
O=[N+]([O-])c1cc(-c2nc(-c3ccc(Oc4ccc(F)cc4)cc3)no2)ccc1O	≥ 128
COc1ccc(-c2nc(-c3ccc(Oc4ccc(C(F)(F)F)cc4)cc3)no2)cc1[N+](=O)[O-]	≥ 128
Cc1nc(-c2ccc(Oc3ccccc3)cc2)no1	≥ 128
Cl.c1ccc(Oc2ccc(-c3noc(C4CCNCC4)n3)cc2)cc1	32
c1ccc(Oc2ccc(-c3noc(-c4ccc5[nH]ccc5c4)n3)cc2)cc1	2 (≈ 5.66 µM)
NC(=O)c1ccc(-c2nc(-c3ccc(Oc4ccc(F)cc4)cc3)no2)cc1	≥ 128
Nc1ccc(-c2nc(-c3ccc(Oc4ccc(C(F)(F)F)cc4)cc3)no2)cc1F	2 (≈ 4.82 µM)
FC(F)(F)c1ccc(Oc2ccc(-c3noc(-c4c[nH]c5ncccc45)n3)cc2)cc1	≥ 128
COc1ccc(-c2nc(-c3ccc(Oc4ccc(F)cc4)cc3)no2)cc1OC	≥ 128
O=C(O)c1ccc(-c2nc(-c3ccc(Oc4ccc(F)cc4)cc3)no2)cc1	≥ 128
Cc1ccc(S(=O)(=O)N2CCC(c3nc(-c4ccc(Oc5ccc(F)cc5)cc4)no3)CC2)cc1	≥ 128
CS(=O)(=O)Nc1ccc(-c2nc(-c3ccc(Oc4ccc(C(F)(F)F)cc4)cc3)no2)cc1	≥ 128
Oc1c(F)cc(-c2nc(-c3ccc(Oc4ccc(C(F)(F)F)cc4)cc3)no2)cc1F	2 (≈ 4.6 µM)

Structure (SMILES)	MIC [µg/mL]
Oc1cccc(-c2nc(-c3ccc(Oc4ccccc4)cc3)no2)c1	≥ 128
Nc1cncc(-c2nc(-c3ccc(Oc4ccc(C(F)(F)F)cc4)cc3)no2)c1	≥ 128
Cl.Nc1ccc(-c2nc(-c3ccc(Oc4ccc(C(F)(F)F)cc4)cc3)no2)cc1	1
COc1ccc(-c2nc(-c3ccc(Oc4ccc(F)cc4)cc3)no2)cc1[N+](=O)[O-]	≥ 128
COC(=O)c1ccc(-c2nc(-c3ccc(Oc4ccc(F)cc4)cc3)no2)cc1	≥ 128
Nc1c[nH]nc1-c1nc(-c2ccc(Oc3ccc(F)cc3)cc2)no1	16 (≈ 47.4 µM)
Oc1ccc(-c2nc(-c3ccc(Oc4ccc(F)cc4)cc3)no2)cc1O	4 (≈ 11 µM)
CCOP(=O)(OCC)c1ccc(-c2nc(-c3ccc(Oc4ccc(F)cc4)cc3)no2)cc1	≥ 128
NS(=O)(=O)c1ccc(-c2nc(-c3ccc(Oc4ccc(F)cc4)cc3)no2)cc1	≥ 128
O=C(Nc1c[nH]nc1-c1nc(-c2ccc(Oc3ccc(C(F)(F)F)cc3)cc2)no1)c1ccccn1	≥ 128
Oc1ccccc1-c1nc(-c2ccc(Oc3ccccc3)cc2)no1	≥ 128
Nc1ccc(-c2nc(-c3ccc(Oc4ccccc4)cc3)no2)cc1F	≥ 128
COc1ccc(-c2nc(-c3ccc(Oc4ccc(C(F)(F)F)cc4)cc3)no2)cc1OC	≥ 128
O=[N+]([O-])c1c[nH]nc1-c1nc(-c2ccc(Oc3ccccc3)cc2)no1	2 (≈ 5.73 µM)
Nc1c[nH]nc1-c1nc(-c2ccc(Oc3ccc(C(F)(F)F)cc3)cc2)no1	4 (≈ 10.3 µM)
Nc1c[nH]c(-c2nc(-c3ccc(Oc4ccc(F)cc4)cc3)no2)c1	≥ 128
Nc1c(F)cc(-c2nc(-c3ccc(Oc4ccccc4)cc3)no2)cc1F	8 (≈ 21.9 µM)
C[Si](C)(C)C#Cc1c[nH]nc1-c1nc(-c2ccc(Oc3ccc(C(F)(F)F)cc3)cc2)no1	≥ 128
c1ccc(Oc2ccc(-c3noc(-c4ccc5[nH]ncc5c4)n3)cc2)cc1	≥ 128
Oc1ccc(-c2nc(-c3ccc(Oc4ccccc4)cc3)no2)cc1	1 (≈ 3.03 µM)
Fc1ccc(Oc2ccc(-c3noc(-c4ccc5[nH]ccc5c4)n3)cc2)cc1	1 (≈ 2.69 µM)
Brc1c[nH]nc1-c1nc(-c2ccc(Oc3ccccc3)cc2)no1	1 (≈ 2.61 µM)
[O-][n+]1ccc(-c2nc(-c3ccc(Oc4ccccc4)cc3)no2)cc1	≥ 128
Fc1ccc(-c2nc(-c3ccc(Oc4ccc(C(F)(F)F)cc4)cc3)no2)cc1	≥ 128
COc1cc(-c2nc(-c3ccc(Oc4ccc(C(F)(F)F)cc4)cc3)no2)ccc1O	≥ 128
CC(C)CNc1c[nH]nc1-c1nc(-c2ccc(Oc3ccc(C(F)(F)F)cc3)cc2)no1	≥ 128
